The text below walks through data of patent US12297190B2, “Modulators of STING (stimulator of interferon genes)” (PFIZER INC., priority 2019, dated 2025).

A word on the Ki: it is the dissociation constant of the complex between target and ligand, obtained from inhibition or displacement. Low values mean a stronger hold on the target, high ones a looser hold on the target.

In this test the target is R232-STING (Homo sapiens, UniProt Q86WV6, H232R). Put plainly: biochemical.
R232-STING, sequence (Q86WV6 155-341 H232R): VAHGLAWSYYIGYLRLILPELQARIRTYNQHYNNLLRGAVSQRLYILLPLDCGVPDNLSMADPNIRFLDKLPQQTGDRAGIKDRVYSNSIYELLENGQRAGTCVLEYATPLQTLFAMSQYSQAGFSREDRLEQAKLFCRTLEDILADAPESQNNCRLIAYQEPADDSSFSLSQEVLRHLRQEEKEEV

On to `CCn1nc(C)cc1-c1nc(C(=O)O)c(-c2nc(C(N)=O)cc3c2cnn3C)o1` [ZZZ131, 5-(6-carbamoyl-1-methyl-1H-pyrazolo[4,3-c]pyridin-4-yl)-2-(1-ethyl-3-methyl-1H-pyrazol-5-yl)-1,3-oxazole-4-carboxylic acid], for which the Ki is above 990 nM.

`CCCN1CCC[C@@H]1Cn1ncc2c(-c3nnc(-c4cc(C)nn4CC)[nH]3)cc(C(N)=O)cc21` (racemic) [ZZZ025, 4-[5-(1-ethyl-3-methyl-1H-pyrazol-5-yl)-4H-1,2,4-triazol-3-yl]-1-{[(2R)-1-propylpyrrolidin-2-yl]methyl}-1H-indazole-6-carboxamide] registered a Ki of 714 nM.

For the compound `CCn1nc(C)cc1-c1nnc(-c2cc(C(N)=O)cc3c2cnn3C[C@H]2[C@@H]3CNC[C@@H]32)[nH]1` [ZZZ058, 1-{[(1R,5S,6r)-3-azabicyclo[3.1.0]hexan-6-yl]methyl}-4-[5-(1-ethyl-3-methyl-1H-pyrazol-5-yl)-4H-1,2,4-triazol-3-yl]-1H-indazole-6-carboxamide], the Ki was above 990 nM. Then `CCn1nc(C)cc1-c1n[nH]c(-c2cc(C(N)=O)cc3c2cnn3CCN2C[C@H](C)OC[C@H]2C)n1` (racemic) [ZZZ089, 1-{2-[(2S,5R)-2,5-dimethylmorpholin-4-yl]ethyl}-4-[3-(1-ethyl-3-methyl-1H-pyrazol-5-yl)-1H-1,2,4-triazol-5-yl]-1H-indazole-6-carboxamide], with 917 nM; and `CCn1nc(C)cc1-c1nnc(-c2cc(C(N)=O)cc3c2cnn3CC2(CN(C)C)CC2)[nH]1` [ZZZ028, 1-({1-[(dimethylamino)methyl]cyclopropyl}methyl)-4-[5-(1-ethyl-3-methyl-1H-pyrazol-5-yl)-4H-1,2,4-triazol-3-yl]-1H-indazole-6-carboxamide], with above 990 nM; and `CCn1nc(C)cc1-c1nc(-c2nc(C(N)=O)cc3c2cnn3C)n(CCNC)n1` [ZZZ126, 4-{3-(1-ethyl-3-methyl-1H-pyrazol-5-yl)-1-[2-(methylamino)ethyl]-1H-1,2,4-triazol-5-yl}-1-methyl-1H-pyrazolo[4,3-c]pyridine-6-carboxamide], with above 990 nM. In the case of `CCn1nc(C)c(F)c1-c1nnc(-c2cc(C(N)=O)cn3c(C(=O)O)ncc23)[nH]1` [ZZZ057, 6-carbamoyl-8-[5-(1-ethyl-4-fluoro-3-methyl-1H-pyrazol-5-yl)-4H-1,2,4-triazol-3-yl]imidazo[1,5-a]pyridine-3-carboxylic acid], the Ki is above 990 nM. Then `CCn1nc(CO)cc1-c1cnc(-c2cc(C(N)=O)cc3c2cnn3C)[nH]1` [ZZZ122, 4-{5-[1-ethyl-3-(hydroxymethyl)-1H-pyrazol-5-yl]-1H-imidazol-2-yl}-1-methyl-1H-indazole-6-carboxamide], with above 900 nM. The same measure for `CCn1nc(C)cc1-c1nnc(-c2cc(C(N)=O)cc3c2cnn3CCCC2CCNCC2)[nH]1` [ZZZ077, 4-[5-(1-ethyl-3-methyl-1H-pyrazol-5-yl)-4H-1,2,4-triazol-3-yl]-1-[3-(piperidin-4-yl)propyl]-1H-indazole-6-carboxamide]: above 990 nM.

As for `CCn1nc(C)cc1-c1n[nH]c(-c2cc(C(N)=O)cc3c2cnn3CCN2CC3(CCCO3)C2)n1` [ZZZ094, 4-[3-(1-ethyl-3-methyl-1H-pyrazol-5-yl)-1H-1,2,4-triazol-5-yl]-1-[2-(5-oxa-2-azaspiro[3.4]octan-2-yl)ethyl]-1H-indazole-6-carboxamide], the Ki came to 550 nM.

As for `CCn1nc(C)cc1-c1nnc(-c2cc(C(N)=O)cc3c2cnn3C[C@H]2CCCCN2C)[nH]1` [ZZZ032, 4-[5-(1-ethyl-3-methyl-1H-pyrazol-5-yl)-4H-1,2,4-triazol-3-yl]-1-{[(2R)-1-methylpiperidin-2-yl]methyl}-1H-indazole-6-carboxamide], the Ki was determined as 967 nM. The same measure for `CCn1nc(C)cc1-c1nnc(-c2cc(C(N)=O)cc3c2cnn3C[C@H]2CCN(C3CC3)C2)[nH]1` (racemic) [ZZZ038, 1-{[(3S)-1-cyclopropylpyrrolidin-3-yl]methyl}-4-[5-(1-ethyl-3-methyl-1H-pyrazol-5-yl)-4H-1,2,4-triazol-3-yl]-1H-indazole-6-carboxamide]: 928 nM; for `CCn1nc(C)c(F)c1-c1nc(-c2c(F)c(C(N)=O)cc3c2cnn3C)n(C)n1` [ZZZ130, 4-[3-(1-ethyl-4-fluoro-3-methyl-1H-pyrazol-5-yl)-1-methyl-1H-1,2,4-triazol-5-yl]-5-fluoro-1-methyl-1H-indazole-6-carboxamide]: above 990 nM.

As to `CCN(CCO)CCn1ncc2c(-c3nc(-c4cc(C)nn4CC)n[nH]3)cc(C(N)=O)cc21` [ZZZ112, 1-{2-[ethyl(2-hydroxyethyl)amino]ethyl}-4-[3-(1-ethyl-3-methyl-1H-pyrazol-5-yl)-1H-1,2,4-triazol-5-yl]-1H-indazole-6-carboxamide], the Ki was above 990 nM. For the compound `CCn1nc(C)cc1-c1n[nH]c(-c2cc(C(N)=O)cc3c2cnn3CCN2CC(CO)OCC2C)n1` (stereo not drawn) [ZZZ096, 4-[3-(1-ethyl-3-methyl-1H-pyrazol-5-yl)-1H-1,2,4-triazol-5-yl]-1-{2-[2-(hydroxymethyl)-5-methylmorpholin-4-yl]ethyl}-1H-indazole-6-carboxamide], affinity was put at a Ki of 861 nM.

With `CCn1nc(C)cc1-c1n[nH]c(-c2nc(C(N)=O)cc3[nH]ncc23)n1` [ZZZ012, 4-[3-(1-ethyl-3-methyl-1H-pyrazol-5-yl)-1H-1,2,4-triazol-5-yl]-1H-pyrazolo[4,3-c]pyridine-6-carboxamide], the affinity, expressed as Ki, was 190 nM.

In turn, `CCn1nc(C)cc1-c1n[nH]c(-c2cc(C(N)=O)cc3c2cnn3CCN2CC3CCC3C2)n1` (stereo not drawn) [ZZZ110, 1-[2-(3-azabicyclo[3.2.0]heptan-3-yl)ethyl]-4-[3-(1-ethyl-3-methyl-1H-pyrazol-5-yl)-1H-1,2,4-triazol-5-yl]-1H-indazole-6-carboxamide] displayed a Ki of 623 nM. The compound `CCn1nc(C)c(I)c1-c1nnc(-c2cc(C(N)=O)cc3c2cnn3C)[nH]1` [ZZZ053, 4-[5-(1-ethyl-4-iodo-3-methyl-1H-pyrazol-5-yl)-4H-1,2,4-triazol-3-yl]-1-methyl-1H-indazole-6-carboxamide] had a Ki above 990 nM.

The compound `CCn1nc(C)c(O)c1-c1nc(-c2nc(C(N)=O)cc3[nH]ncc23)n(C)n1` [ZZZ084, 4-[3-(1-ethyl-4-hydroxy-3-methyl-1H-pyrazol-5-yl)-1-methyl-1H-1,2,4-triazol-5-yl]-1H-pyrazolo[4,3-c] pyridine-6-carboxamide] had a Ki above 90.1 nM. In the case of `CCn1nc(CN)cc1-c1nc(-c2nc(C(N)=O)cc3c2cnn3C)n(C)n1` [ZZZ121, 4-{3-[3-(aminomethyl)-1-ethyl-1H-pyrazol-5-yl]-1-methyl-1H-1,2,4-triazol-5-yl}-1-methyl-1H-pyrazolo[4,3-c]pyridine-6-carboxamide], the Ki was above 990 nM.

In turn, `CCn1nc(C)cc1-c1nnc(-c2c(C(F)(F)F)c(C(N)=O)cc3c2cnn3C)[nH]1` [ZZZ044, 4-[5-(1-ethyl-3-methyl-1H-pyrazol-5-yl)-4H-1,2,4-triazol-3-yl]-1-methyl-5-(trifluoromethyl)-1H-indazole-6-carboxamide] gave a Ki above 900 nM.

With `CCn1nc(CO)cc1-c1nc(-c2nc(C(N)=O)cc3[nH]ncc23)n(C)n1` [ZZZ082, 4-{3-[1-ethyl-3-(hydroxymethyl)-1H-pyrazol-5-yl]-1-methyl-1H-1,2,4-triazol-5-yl}-1H-pyrazolo[4,3-c]pyridine-6-carboxamide], affinity was put at a Ki of 501 nM. Compound `CCn1nc(C)c(F)c1-c1nnc(-c2cc(C(N)=O)cn3c(CN)ncc23)[nH]1` [ZZZ086, 3-(aminomethyl)-8-[5-(1-ethyl-4-fluoro-3-methyl-1H-pyrazol-5-yl)-4H-1,2,4-triazol-3-yl]imidazo[1,5-c]pyridine-6-carboxamide] showed a Ki above 990 nM.

Compound `CCn1nc(C)cc1-c1n[nH]c(-c2cc(C(N)=O)cc3c2cnn3CCN(C)CC#N)n1` [ZZZ101, 1-{2-[(cyanomethyl)(methyl)amino]ethyl}-4-[3-(1-ethyl-3-methyl-1H-pyrazol-5-yl)-1H-1,2,4-triazol-5-yl]-1H-indazole-6-carboxamide] registered a Ki of 509 nM. The same measure for `CCn1nc(C)cc1-c1nnc(-c2cc(C(N)=O)cc3nn(C)nc23)[nH]1` [ZZZ003, 7-[5-(1-ethyl-3-methyl-1H-pyrazol-5-yl)-4H-1,2,4-triazol-3-yl]-2-methyl-2H-benzotriazole-5-carboxamide]: above 990 nM; for `CCn1nc(C)cc1-c1n[nH]c(-c2cc(C(N)=O)cc3c2cnn3CCN2CCO[C@H](C)C2)n1` [ZZZ098, 4-[3-(1-ethyl-3-methyl-1H-pyrazol-5-yl)-1H-1,2,4-triazol-5-yl]-1-{2-[(2R)-2-methylmorpholin-4-yl]ethyl}-1H-indazole-6-carboxamide]: 541 nM; for `CCn1nc(C)cc1-c1n[nH]c(-c2cc(C(N)=O)cc3c2cnn3CCN2CCO[C@H](CO)C2)n1` [ZZZ118, 4-[3-(1-ethyl-3-methyl-1H-pyrazol-5-yl)-1H-1,2,4-triazol-5-yl]-1-{2-[(2S)-2-(hydroxymethyl)morpholin-4-yl]ethyl}-1H-indazole-6-carboxamide]: 538 nM. Then `CCn1nc(C)cc1-c1nnc(-c2cc(C(N)=O)cc3c2cnn3C[C@H](C)C2CCNCC2)[nH]1` [ZZZ078, 4-[5-(1-ethyl-3-methyl-1H-pyrazol-5-yl)-4H-1,2,4-triazol-3-yl]-1-[(2R)-2-(piperidin-4-yl)propyl]-1H-indazole-6-carboxamide], with 641 nM; and `CCn1nc(C)cc1-c1n[nH]c(-c2cc(C(N)=O)cc3c2cnn3CCN2CC[C@H](OC)C2)n1` [ZZZ106, 4-[3-(1-ethyl-3-methyl-1H-pyrazol-5-yl)-1H-1,2,4-triazol-5-yl]-1-{2-[(3S)-3-methoxypyrrolidin-1-yl]ethyl}-1H-indazole-6-carboxamide], with 944 nM; and `CCn1nc(C)cc1-c1nnc(-c2cc(C(N)=O)cc3c2cnn3[C@H](C)CCN2CCOCC2)[nH]1` (racemic) [ZZZ022, 4-[5-(1-ethyl-3-methyl-1H-pyrazol-5-yl)-4H-1,2,4-triazol-3-yl]-1-[(2R)-4-(morpholin-4-yl)butan-2-yl]-1H-indazole-6-carboxamide], with 447 nM.
